Data from patent publication US6472408B1, “Dimeric compounds” (priority 2000, dated 2002).
Where a name gives a salt, the structure may show the parent alone. Read-outs that look alike come from different tables or passages of the source.

Legend:
BChE = biological target: T1, BChE (Rattus norvegicus, UniProt Q9JKC1); assay: biochemical; details: for IC50: rat serum
T1 construct: Rat serum was obtained by centrifugation of blood; from tissue; host or cells: rat serum
Procedure: (§1) AChE and BChE enzyme preparations were prepared from cortex and serum respectively of decapitated rats. Frontal cortex (brain dissected on ice) was homogenized in sodium phosphate buffer (39 vol. 75 mM, pH 7.4). Rat serum was obtained by centrifugation of blood (3500×g, 10 min.). The cholinesterase assays were performed using the cloroimetric method of Ellman, with minor modification. […] A mixture of 4 mL containing acetylthiocholine iodide (0.3 mM) or butrylthiocholine iodide (0.4 mM), I mL sodium phosphate buffer ([…], pH 7.4), a solution of the compound being tested (0.1 mL), and homogenate or serum (0.1 mL) was incubated at 37° C. for 8 minutes. The reaction was terminated by the addition of sodium dodecyl sulfate (3% w/v, 1 mL), after which the 5,5′-dithiobis-(2-nitrobenzoic acid) indicator (0.2% w/v, 1 mL) was added. Enzyme activity was determined by measuring the absorbance at 420 nm after 10 minutes, relative to the drug-free control.

AChE = biological target: T2, AChE (Rattus norvegicus, UniProt P37136); assay: biochemical; details: for Selectivity for AChE: IC50(BChE)/IC50(AChE)
T2 construct: Frontal cortex (brain dissected on ice) was homogenized in sodium phosphate buffer; from tissue; host or cells: rat frontal cortex homogenate
T2 sequence (P37136 32-614): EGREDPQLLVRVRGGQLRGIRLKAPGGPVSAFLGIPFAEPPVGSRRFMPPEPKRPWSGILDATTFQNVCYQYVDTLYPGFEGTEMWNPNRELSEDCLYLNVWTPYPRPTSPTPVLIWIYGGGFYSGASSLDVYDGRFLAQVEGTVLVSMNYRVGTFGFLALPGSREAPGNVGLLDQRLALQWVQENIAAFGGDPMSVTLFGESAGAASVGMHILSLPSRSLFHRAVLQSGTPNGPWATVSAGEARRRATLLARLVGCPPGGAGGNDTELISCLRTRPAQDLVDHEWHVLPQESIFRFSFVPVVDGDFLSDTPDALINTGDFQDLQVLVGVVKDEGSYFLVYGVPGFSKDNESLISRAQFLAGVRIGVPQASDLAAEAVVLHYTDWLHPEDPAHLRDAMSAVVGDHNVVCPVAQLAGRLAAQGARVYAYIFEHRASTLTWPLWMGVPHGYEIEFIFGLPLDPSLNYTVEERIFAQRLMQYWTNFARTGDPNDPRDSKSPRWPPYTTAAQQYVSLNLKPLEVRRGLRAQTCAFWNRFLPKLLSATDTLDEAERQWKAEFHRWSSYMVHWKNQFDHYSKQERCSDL
Procedure: as §1, with “Rat” for “AChE and BChE enzyme preparations were prepared from cortex and serum respectively of decapitated rats. Frontal cortex (brain dissected on ice) was homogenized in sodium phosphate buffer (39 vol. 75 mM, pH 7.4). Rat”

[1] = Table II, in the presence of BW284c51 as a specific AChE inhibitor, drugs assayed as salts
[2] = at 0.5 mM, the highest drug concentration tested
[3] = Table II, rat cortex homogenate, in the presence of ethopropazine as a specific BChE inhibitor, drugs assayed as hydrochloride or fumaric acid salts, read-out: AchE IC50
[4] = Table III, in the presence of BW284c51, drugs 13 assayed as hydrochloride salts
[5] = Table III, rat cornea homogenate, in the presence of ethopropazine, drugs 13 assayed as hydrochloride salts, read-out: AChE IC50

T1 sequence (Q9JKC1 24-597): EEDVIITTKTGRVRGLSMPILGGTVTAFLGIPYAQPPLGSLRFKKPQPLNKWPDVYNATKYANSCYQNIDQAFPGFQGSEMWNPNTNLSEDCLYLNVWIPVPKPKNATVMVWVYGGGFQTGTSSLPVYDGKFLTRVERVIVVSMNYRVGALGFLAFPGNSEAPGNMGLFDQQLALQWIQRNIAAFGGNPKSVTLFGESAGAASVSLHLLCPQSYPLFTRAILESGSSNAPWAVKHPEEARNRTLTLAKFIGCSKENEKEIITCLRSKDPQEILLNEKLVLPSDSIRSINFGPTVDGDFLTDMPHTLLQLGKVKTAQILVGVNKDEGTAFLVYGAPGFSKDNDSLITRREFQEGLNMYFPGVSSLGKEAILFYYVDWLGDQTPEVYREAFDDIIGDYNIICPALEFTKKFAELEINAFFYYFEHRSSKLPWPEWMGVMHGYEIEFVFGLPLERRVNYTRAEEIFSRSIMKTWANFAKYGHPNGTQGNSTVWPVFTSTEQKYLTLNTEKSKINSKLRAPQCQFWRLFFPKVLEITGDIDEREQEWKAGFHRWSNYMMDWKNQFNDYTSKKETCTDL

Compound | IC50 (BChE; [1]) [µM] | Selectivity for AChE (AChE; Table II) | IC50 (AChE; [3]) [µM] | further results
CCCCNC1CCCc2[nH]c(=O)ccc21 (racemic) [(±)-16, 5-n-Butylamino-5,6,7,8-tetrahydroquinolinone, bis-Hydrochloride, reference compound] | ~500 | ·1 | – | inhibition at 500 µM (BChE; [2]): ~50%; IC50 (AChE): ~500 µM; inhibition at 500 µM (AChE; [2]): ~50%
O=c1ccc2c([nH]1)CCCC2NCCCCNC1CCCc2[nH]c(=O)ccc21 (racemic) [rac-lmeso-13a] | 115 | 2.7 | 42.3 | –
O=c1ccc2c([nH]1)CCCC2NCCCCCNC1CCCc2[nH]c(=O)ccc21 (racemic) [rac-lmeso-13b] | – | 9.1 | 10.5 | –
O=c1ccc2c([nH]1)CCCC2NCCCCCCNC1CCCc2[nH]c(=O)ccc21 (racemic) [rac-lmeso-13c] | 98.8 | 26.3 | 3.76 | –
O=c1ccc2c([nH]1)CCCC2NCCCCCCCNC1CCCc2[nH]c(=O)ccc21 (racemic) [rac-lmeso-13d, rac-/meso-N′,N′-Di-5′-(5′,6′,7′,8′-Tetrahydroquinolin-2-onyl)-1,7-diaminoheptane, bis-Hydrochloride Salt] | 34.6 | 28.0 | 1.24 | –
O=c1ccc2c([nH]1)CCCC2NCCCCCCCCNC1CCCc2[nH]c(=O)ccc21 (racemic) [rac-lmeso-13e] | 10.2 | 8.7 | 1.17 | –
O=c1ccc2c([nH]1)CCCC2NCCCCCCCCCNC1CCCc2[nH]c(=O)ccc21 (racemic) [rac-lmeso-13f] | – | 30.3 | 0.356 ± 0.007 | –
O=c1ccc2c([nH]1)CCCC2NCCCCCCCCCCNC1CCCc2[nH]c(=O)ccc21 (racemic) [rac-lmeso-13g] | 5.45 | – | – | –
O=c1ccc2c([nH]1)CCCC2NCCCCCCCCCCCCNC1CCCc2[nH]c(=O)ccc21 (racemic) [rac-lmeso-13i] | 24.4 | – | – | –
CC1(C)Cc2[nH]c(=O)ccc2C(NCCCCCCCNC2CC(C)(C)Cc3[nH]c(=O)ccc32)C1 (racemic) [rac-lmeso-14d, rac-/meso-N,N′-Di-5′-(7′,7′-Dimethyl-5′,6′,7′,8′-tetrahydroquinolin-2-onyl)-1,7-diaminoheptane, bis-Fumaric Acid Salt] | 190 | 10 | 18.3 | –
CC1(C)Cc2[nH]c(=O)ccc2C(NCCCCCCCCCNC2CC(C)(C)Cc3[nH]c(=O)ccc32)C1 (racemic) [rac-lmeso-14f] | 104 | 8.8 | 11.8 | –
CC1(C)Cc2[nH]c(=O)ccc2C(NCCCCCCCCCCNC2CC(C)(C)Cc3[nH]c(=O)ccc32)C1 (racemic) [rac-lmeso-14g] | – | 17 | 6.11 | –
CC1(C)Cc2[nH]c(=O)ccc2C(NCCCCCCCCCCCCNC2CC(C)(C)Cc3[nH]c(=O)ccc32)C1 (racemic) [rac-lmeso-14i] | – | 17 | 3.62 | –
Cn1c2c(ccc1=O)C(NCCCCCCCCCCNC1CCCc3c1ccc(=O)n3C)CCC2 (racemic) [rac-lmeso-15g, rac/meso-N,N′-di-5′-(5′,6′,7′,8′-Tetrahydro-1′-methyl-quinolinolyl)-1,10-diaminodecane, bis-Fumaric Acid] | – | 180 | 0.438 ± 0.029 | –
COc1ccc2c(n1)CCCC2NCCCCCCCCCCNC1CCCc2nc(OC)ccc21 (racemic) [rac-lmeso-17g, rac-/meso-N,N′-di-5′-(5′,6′,7′,8′-Tetrahydro-2′-methoxy-quinolinyl)-1,10-diaminodecane, bis-Fumaric Acid] | 34.6 | 7.6 | 4.53 | –
COc1ccc2c(n1)CCCC2NCCCCCCCCCCCCNC1CCCc2nc(OC)ccc21 (racemic) [rac-lmeso-17i] | 78.9 | 15.8 | 5 | fold increase in AChE IC50 relative to rac-/meso-13i (AChE): 31 fold
CC1(NCCCCCCCCCCNC2(C)CCCc3[nH]c(=O)ccc32)CCCc2[nH]c(=O)ccc21 (racemic) [rac-lmeso-19g, rac-/meso-N,N′-di-5′-(5′,6′,7′,8′-Tetrahydro-5′-methylquinolinonyl)-1,10-diaminodecane, Fumaric Acid Salt] | – | 6.6 | 1.86 | fold less potent than 13 g (AChE; AChE potency): 8 fold
O=c1ccc2c([nH]1)CCC[C@H]2NCCCCCCCCCCCCN[C@@H]1CCCc2[nH]c(=O)ccc21 [(R,R)-(+)-13i] | – | – | – | IC50 (BChE; [4]): 297 µM
O=c1ccc2c([nH]1)CCC[C@@H]2NCCCCCCCCCCN[C@H]1CCCc2[nH]c(=O)ccc21 [(S,S)-(−)-13g] | – | – | – | IC50 (BChE; [4]): 1.82 µM
O=c1ccc2c([nH]1)CCC[C@@H]2NCCCCCCCCCCCN[C@H]1CCCc2[nH]c(=O)ccc21 [(S,S)-(−)-13h] | – | – | – | IC50 (BChE; [4]): 1.16 µM; Selectivity for AChE (AChE; Table III): 13.8; IC50 (AChE; [5]): 0.084 ± 0.005 µM
O=c1ccc2c([nH]1)CCC[C@@H]2NCCCCCCCCCCCCN[C@H]1CCCc2[nH]c(=O)ccc21 [(S,S)-(−)-13i, (S,S)-(−)-N,N′-di-5′-(5′,6′,7′,8′-Tetrahydroquinolin-2-onyl)-1,12-diaminododecane, bis-Hydrochloride Salt] | – | – | – | IC50 (BChE; [4]): 9.6 µM
O=c1ccc2c([nH]1)CCC[C@@H]2NCCCCCCCCCCCCCN[C@H]1CCCc2[nH]c(=O)ccc21 [(S,S)-(−)-13j] | – | – | – | IC50 (BChE; [4]): 16.7 µM; Selectivity for AChE (AChE; Table III): 321; IC50 (AChE; [5]): 0.052 ± 0.009 µM
O=c1ccc2c([nH]1)CCC[C@@H]2NCCCCCCCCCCCCCCN[C@H]1CCCc2[nH]c(=O)ccc21 [(S,S)-(−)-13k] | – | – | – | IC50 (BChE; [4]): 59.5 µM; Selectivity for AChE (AChE; Table III): 248; IC50 (AChE; [5]): 0.24 ± 0.05 µM
